Assay results as given in patent publication US7045513B1, “DHEA composition and method” (priority 1999, dated 2006).

Assays:
[1] = 14-day stress study of DHEA forms I and II, monitored by XRPD; format: physicochemical; settings: for Stability (summary): ambient conditions and heat at non-saturating humidity; for Stability to solid form conversion: ambient temperature and 50° C., two weeks, RH as high as 84%
Experimental: Little weight gain (<0.8%) is observed in these samples. (Weight losses observed at 50° C. could be due to loss of residual solvent, sublimation of sample, and/or thermal degradation.)
X-Ray Powder Diffraction (XRPD). XRPD analyses were carried out on a Siemens D-500 X-ray Powder Diffractometer-Kristaloflex or a Shimadzu XRD-6000 X-ray powder diffractometer using Cu Kα radiation (1.5406 Å).
The Siemens instrument was equipped with an IBM-compatible interface and utilized DIFFRAC AT software (SOCABIM, 1994). Slits I and II were set at 1° and the radiation was electronically filtered by a Kevex Psi Peltier cooled silicon detector with slits III at 1° and IV at 0.15°. A continuous theta-two theta scan at 6°/min (0.4 sec/0.04° step) from 4 to 40°2θ was used. A silicon standard was analyzed each day to check the instrument alignment. Each sample was prepared by pressing a small amount of the powder onto a zero-background quartz-in-aluminum sample holder.
The Shimadzu instrument was equipped with a fine-focus X-ray tube. The tube power was set at 40 kV, 40 mA. The divergence and scattering slits were set at 1° and the receiving slit was set at 0.15 mm. Diffracted radiation was detected by an NaI scintillation detector. A theta-two theta continuous scan at 3°/min (0.4 sec/0.02° step) from 4 to 40°2θ was used. A silicon standard was analyzed each day to check the instrument alignment, and an alumina standard was analyzed each day to check the X-ray tube output. Each sample was prepared for analysis by pressing it with a spatula onto a glass or quartz sample holder.

[2] = Single dose pharmacokinetic study of orally administered DHEA formulations; format: in vivo, human; settings: conclusion drawn from the single dose study
Experimental: Example 2 describes a study in which 34 healthy postmenopausal women were administered orally one of three formulations of DHEA, each prepared from commercially available DHEA, in capsular form. The formulations were administered in single dosages of four opaque, size 2 capsules, each capsules containing 50 mg DHEA, 152 mg lactose (169 mg for formulation 3), 108 mg corn starch, and 3 mg magnesium stearate.
Blood samples were collected prior to and at various times after administration, and the levels of DHEA and DHEA-S were measured by immunoassay. […]
AUC (area under curve) is an indicator of extent of absorption; Cmax and Tmax are indicators of rate of absorption. Serum DHEA concentrations for all samples were above the assay limit of quantification. […]
DHEA levels were determined by radioimmunoassay (RIA) at Endocrine Sciences Inc., after non-polar solvent extraction. […] Internal assay controls were monitored via control charts. […]. […]
Adjusted serum levels were calculated by subtracting baseline (average of −0.5 hr and 0 hr serum levels). […] For DHEA and DHEA-S, the peak serum concentration (Cmax) and time to peak concentration (Tmax) were assessed from the concentration-time data. […]

[3] = Solid form stability of form I after 1, 2, 3 and 6 months, by 13C-SSNMR; format: physicochemical
Experimental: Solid State NMR Method (SSNMR). SSNMR spectra were obtained on a General Electric Omega PSG, 100 MHz spectrometer using about 50 mg of sample in a 5-mm diameter zirconia rotor. High-power proton decoupling and cross-polarization with magic-angle spinning at approximately 5 kHz were used. The magic angle was adjusted using the Br signal of KBr by detecting the side bands as described by Frye and Maciel, 1982. The chemical shifts were referenced externally to the CH resonance of adamantane at 29.50 ppm. Curve fitting of selected peaks for integration was performed as described by MacDonald (1980). The following peaks were used to measure forms I, II and VI: sum of peaks at 118.8 and 120.3 ppm (form I), peak at 119.8 ppm (form II), and peak at 118.5 ppm (form VI).

[4] = 25° C. (ambient temperature), 95% RH

| Structure (SMILES) | Final Form (by XRPD), 14 days [1, 4] | Wt change, % (14 days) ([1]; 25° C., 58% RH, 14 days) [%] | Wt change, % (14 days) ([1]; 25° C., 75% RH, 14 days) | Wt change, % (14 days) ([1]; 25° C., 84% RH, 14 days) | Wt change, % (14 days) ([1]; 25° C., 95% RH, 14 days) | Wt change, % (14 days) ([1]; 50° C., 58% RH, 14 days) [%] | Final Form (by XRPD), 14 days ([1]; 50° C., 75% RH) | Wt change, % (14 days) ([1]; 50° C., 75% RH, 14 days) [%] | Final Form (by XRPD), 14 days ([1]; 50° C., 84% RH) | Wt change, % (14 days) ([1]; 50° C., 84% RH, 14 days) [%] | Final Form (by XRPD), 14 days ([1]; 50° C., 95% RH) | Wt change, % (14 days) ([1]; 50° C., 95% RH, 14 days) | Solid form conversion ([1]; 50°, RH of 75% or greater, 14 days) | Stability (summary) [1] | Stability to solid form conversion [1] | Bioavailability when administered orally [2] | Overall stability, form I compared with form II ([1]; summary of the stability studies) | Final Form (by 13C-SSNMR), 1, 2, 3, and 6 months ([3]; 25° C., 58% RH) | Final Form (by 13C-SSNMR), 1, 2, 3, and 6 months ([3]; 40° C. (footnote b), 75% RH) |
| --- | --- | --- | --- | --- | --- | --- | --- | --- | --- | --- | --- | --- | --- | --- | --- | --- | --- | --- | --- |
| C[C@]12CC[C@H](O)CC1=CC[C@@H]1[C@@H]2CC[C@]2(C)C(=O)CC[C@@H]12 [Form II, dehydroepiandrosterone] | converted to S2 | 0 | −0.3% | +0.2% | +5% | −1 | II + S1 | −2 | II + S1 | −0.3 | II + S1 | +1% | partially converted to S1 | stable | stable to solid form conversion | high bioavailability | – | – | – |
| C[C@]12CC[C@H](O)CC1=CC[C@@H]1[C@@H]2CC[C@]2(C)C(=O)CC[C@@H]12 [Form I, dehydroepiandrosterone] | stable | −0.6 | +0.3% | +0.1% | +0.2% | −1 | – | −3 | – | −2 | converted to S2 | +1% | – | stable | stable to solid form conversion | high bioavailability | greater overall stability | remained stable to solid form conversion | remained stable to solid form conversion |
